Data: patent US20230114728A1 (Venatorx Pharmaceuticals, Inc., priority 2019, published 2023)
Values after ≈ are worked out from the molar mass of the structure shown.

Assays:
[1] = test system: A. baumannii CDC-0045 producing TEM-1D, OXA-23, and OXA-69; assay: Broth microdilution MIC in iron-depleted CAMHB (IDM); format: cell-based; conditions: Acinetobacter baumannii, read-out: Minimum Inhibitory Concentration, CDC-0045
P. aeruginosa CDC-0110 = assay: as above; format: cell-based; conditions: Pseudomonas aeruginosa, CDC0110, read-out: Minimum Inhibitory Concentration, P. aeruginosa CDC-0110
Procedure: (§1) To determine the ability of test compounds to inhibit the growth bacterial strains under conditions of iron-depletion, classic cell based broth microdilution minimum inhibitory concentration (MIC) assays were employed. MIC assays are performed according to CLSI methods except where otherwise noted (CLSI, 2018 and CLSI, 2019). The reference type strain E. coli ATCC 25922 was used to determine the ability of the PBP inhibitors to inhibit the growth of Enterobacteriaceae. Wild-type P. aeruginosa ATCC 27853, A. baumannii ATCC 17978 and A. baumannii ATCC 19606, along with the hyper-permeable P. aeruginosa ATCC 35151, an engineered efflux pump-compromised strain of P. aeruginosa (ΔmexAB-oprM), and an engineered efflux-pump compromised strain of A. baumannii IL123 (ABΔ3-ARAEcPore) were used to determine the ability of PBP inhibitors to penetrate the outer membrane of P. aeruginosa and A. baumannii and assess antibacterial activity against these important gram-negative organisms.
(§2) Briefly, cryo-preserved bacterial cultures of challenge strains are streaked for isolation on appropriate agar medium, in this case cation-adjusted Mueller Hinton agar. Following incubation to allow growth of the colonies, plates are sealed with parafilm and stored refrigerated for up to two weeks. For preparation of assay inoculum and to ensure low variability, at least 5 colonies are picked from the agar plates with an inoculating loop and aseptically transferred to a culture tube containing 3 mL of iron-depleted cation-adjusted Mueller Hinton broth (IDM)—see below for IDM preparation. The broth culture is grown for 3-5 hours at 37° C. with shaking at 200 rpm. Meanwhile, 2-fold serial dilutions of test compounds are conducted in a 96-well plate with a final volume of 75 μL per well at 2-fold the final desired concentration. After the dilution plates are set up the growing cultures are then diluted in a cuvette containing IDM and the optical density is measured at 600 nm. The inoculum is diluted such that 75 μL of this culture in IDM results in a starting bacterial concentration of 2-8×10^5 CFU/mL when added to the dilution plates. The plates are incubated for 16-20 hours for Enterobacteriaceae and Pseudomonas and 20-24 hours for Acinetobacter at 37° C. The MIC values are read visually as the lowest concentration well with no bacterial growth.
(§3) Method for Iron-Depleted Cation-Adjusted Mueller Hinton Broth (IDM) Preparation:
(§4) • Prepare cation-adjusted Mueller Hinton broth as per the manufacturer's recommendations and autoclave. • Add 100 g/L Chelex 100 resin, cover with foil and incubate with stirring for 2 hours • Remove Chelex 100 resin by filtration with 0.45 μm filter flask • Add the following back to the medium: • CaCl2 dihydrate: 82.5 mg/L • MgCl2 hexahydrate: 94.1 mg/L • ZnSO4: 10 μM • Adjust pH of medium to 7.3 with 5 N HCl • Sterilize using a 0.22 µm filter flask

[2] = Bocillin-FL fluorescence polarization competition binding assay, A. baumannii PBP3; conditions: fluorescence polarization competition binding assay using Bocillin-FL; column 3; read-out: 4. baumannii PBP1a Potency
Source text: Example I: Experimental Method for Penicillin-Binding Protein Binding Assays with Bocillin-FL Via Fluorescence Polarization
To determine the ability of boronic acid-based test PBP inhibitors to bind Penicillin Binding Proteins (PBPs), Bocillin-FL (fluorescently-labeled penicillin V; ThermoFisher Scientific) was used in a fluorescence polarization (FP) competition binding assay to assess inhibitor binding to PBP2, PBP3 or PBP4 from Escherichia coli (K12), PBP3 from Pseudomonas aeruginosa (PA01), PBP1a, PBP2 and PBP3 from Acinetobacter baumannii (ATCC 19606), and PBP2 from Neiserria gonorrheae (FA19). PBPs were cloned and purified as described previously (E. coli PBPs, King, D. T, et al., ACS Infectious Diseases 2015, 1, 175-184; P. aeruginosa PBP3, Han et. al., PNAS 2010, 107 (51), 22002-22007; A. baumannii PBPs, Penwell et. al., Antimicrob. Agents Chemother. 2015, 59 (3), 1680-1689; N. gonorrhoeae PBP2, Singh et. al., J Biol. Chem. 2019, 294 (38), 14020-14032). To establish assay conditions for competition binding, enzyme titration/saturation binding experiments were initially performed. Bocillin-FL was prepared at 0.2 μM in a buffer comprised of 50 mM Hepes (pH 8.0), 300 mM NaCl and 5% (v/v) glycerol for reactions with E. coli, P. aeruginosa and N. gonorrhoeae PBPs, and 25 mM Tris (pH 8.0), 200 mM NaCl and 10% (v/v) glycerol and 0.005% (v/v) Tween 20 for reactions with A. baumannii PBPs. Saturation binding was performed by mixing 40 μl of PBP solutions ranging in concentrations from 0-24 μM with 40 μl of the 0.2 μM Bocillin-FL solution, in individual wells of a black 384-well microplate. FP was measured immediately upon mixing (Excitation, 490 nm; Emission, 520 nm; g-factor, 0.96), using a Cytation3 (BioTek) microplate reader and measured continuously for up to 120 minutes. […] The competition binding assay (80 μl final volume) was validated using beta-lactams and PBPs at final concentrations of: 1.5 μM, E. coli PBP3; 0.75 μM, P. aeruginosa PBP3; 1 μM A. baumannii PBP1a; 2.5 μM A. baumannii PBP2; 0.2 μM A. baumannii PBP3; and […] N. gonorrhoeae PBP2. Bocillin-FL was at 0.1 μM (0.05 μM with A. baumannii PBP1a) and beta-lactam concentrations ranged from 0-1000 μM. […] Bocillin-FL was added and the FP immediately measured for up to 60 minutes (90 minutes for E. coli PBP2). […] The beta-lactam potency was reported as the concentration of beta-lactam required to reduce the amount of PBP bound-Bocillin-FL by 50% (EC50). […] Binding assays for boronic acid PBP inhibitors were performed in an identical fashion for the respective PBPs

[3] = test system: A. baumannii CDC-0036 OXA-65, and OXA-24; assay: Broth microdilution MIC in iron-depleted CAMHB (IDM); format: cell-based; conditions: Acinetobacter baumannii, read-out: Minimum Inhibitory Concentration, CDC-0036
Procedure: (§5) Example IV: In Vitro Antibacterial Assays in Iron-Depleted Cation-Adjusted Mueller-Hinton Broth
as §1, §2, §3, §4

[4] = test system: A. baumannii CDC-0083 producing NDM-1, PER-7, OXA-23, and OXA-69; assay: as above; format: cell-based; conditions: Acinetobacter baumannii, read-out: Minimum Inhibitory Concentration, CDC-0083
Procedure: as §5, §1, §2, §3, §4

[5] = test system: P. aeruginosa (ΔmexAB-oprM); assay: as above; format: cell-based; conditions: Pseudomonas aeruginosa, read-out: Minimum Inhibitory Concentration, P. aeruginosa ΔmexAB-OprM
Procedure: as §5, §1, §2, §3, §4

[6] = test system: P. aeruginosa CDC-0095 producing OXA-50, and PAO; assay: as above; format: cell-based; conditions: Pseudomonas aeruginosa, read-out: Minimum Inhibitory Concentration, P. aeruginosa CDC-0095
Procedure: as §5, §1, §2, §3, §4

[7] = test system: A. baumannii CDC-0033 producing NDM-1, and OXA-94; assay: as above; format: cell-based; conditions: Acinetobacter baumannii, read-out: Minimum Inhibitory Concentration, CDC-0033
Procedure: as §5, §1, §2, §3, §4

[8] = test system: P. aeruginosa CDC-0054 producing VIM-4, OXA-50, and PAO; assay: as above; format: cell-based; conditions: Pseudomonas aeruginosa, read-out: Minimum Inhibitory Concentration, P. aeruginosa CDC-0054
Procedure: as §5, §1, §2, §3, §4

A. baumannii ATCC 19606 = assay: as above; format: cell-based; conditions: Acinetobacter baumannii, ATCC19606, read-out: Minimum Inhibitory Concentration, ATCC 19606
Procedure: as §5, §1, §2, §3, §4

A. baumannii ATCC 17978 = assay: as above; format: cell-based; conditions: Acinetobacter baumannii, ATCC17978, read-out: Minimum Inhibitory Concentration, ATCC 17978
Procedure: as §5, §1, §2, §3, §4

P. aeruginosa ATCC 35151 = assay: as above; format: cell-based; conditions: Pseudomonas aeruginosa, ATCC35151; iron-depleted MHB (IDM); hyper-permeable strain; read-out: Minimum Inhibitory Concentration, P. aeruginosa ATCC 35151
Procedure: as §5, §1, §2, §3, §4

P. aeruginosa ATCC 27853 = assay: as above; format: cell-based; conditions: Pseudomonas aeruginosa, ATCC27853, read-out: Minimum Inhibitory Concentration, P. aeruginosa ATCC 27853
Procedure: as §5, §1, §2, §3, §4

Compound | MIC [1] [µg/mL] | MIC (P. aeruginosa CDC-0110) [µg/mL] | EC50 [2] [µM] | MIC [3] [µg/mL] | MIC [4] [µg/mL] | MIC [5] [µg/mL] | MIC [6] [µg/mL] | MIC [7] [µg/mL] | MIC [8] [µg/mL] | MIC (A. baumannii ATCC 19606) [µg/mL] | MIC (A. baumannii ATCC 17978) [µg/mL] | MIC (P. aeruginosa ATCC 35151) [µg/mL] | MIC (P. aeruginosa ATCC 27853) [µg/mL]
NCCCN1CCN(C(=O)N[C@@H](C(=O)N[C@H]2Cc3ccc(F)c(C(=O)O)c3OB2O)c2c(F)c(F)c(O)c(O)c2Cl)C(=O)C1=O [Example 227, (R)-3-((R)-2-(4-(3-aminopropyl)-2,3-dioxopiperazine-1-carboxamido)-2-(2-chloro-5,6-difluoro-3,4-dihydroxyphenyl)acetamido)-7-fluoro-2-hydroxy-3,4-dihydro-2H-benzo[e][1,2]oxaborinine-8-carboxylic acid] | 2 to 4 (≈ 3.04 to 6.08 µM) | 0.25 (≈ 0.38 µM) | > 100 | 2 to 4 (≈ 3.04 to 6.08 µM) | 2 to 4 (≈ 3.04 to 6.08 µM) | 0.25 (≈ 0.38 µM) | 2 to 4 (≈ 3.04 to 6.08 µM) | 8 to 16 (≈ 12.2 to 24.3 µM) | 0.5 to 1 (≈ 0.76 to 1.52 µM) | 0.25 (≈ 0.38 µM) | 0.25 (≈ 0.38 µM) | 0.25 (≈ 0.38 µM) | 0.5 to 1 (≈ 0.76 to 1.52 µM)
CCN1CCN(C(=O)N[C@@H](C(=O)N[C@H]2Cc3ccc(F)c(C(=O)O)c3OB2O)c2c(F)c(F)c(O)c(O)c2Cl)C(=O)C1=O [Example 228, (R)-3-((R)-2-(2-chloro-5,6-difluoro-3,4-dihydroxyphenyl)-2-(4-ethyl-2,3-dioxopiperazine-1-carboxamido)acetamido)-7-fluoro-2-hydroxy-3,4-dihydro-2H-benzo[e][1,2]oxaborinine-8-carboxylic acid] | 2 to 4 (≈ 3.18 to 6.36 µM) | 0.5 to 1 (≈ 0.795 to 1.59 µM) | 10 to 30 | 2 to 4 (≈ 3.18 to 6.36 µM) | 2 to 4 (≈ 3.18 to 6.36 µM) | 0.25 (≈ 0.398 µM) | – | 2 to 4 (≈ 3.18 to 6.36 µM) | 2 to 4 (≈ 3.18 to 6.36 µM) | 0.25 (≈ 0.398 µM) | 0.5 to 1 (≈ 0.795 to 1.59 µM) | 0.25 (≈ 0.398 µM) | 0.5 to 1 (≈ 0.795 to 1.59 µM)
